Numbers after ± are expanded uncertainties.
Assay: xn = mol fraction of the nth substance listed
Settings: 101 kPa, Liquid, Vibrating tube method

CCCn1cc[n+](C)c1.N[C@@H](CCC(=O)O)C(=O)[O-] + O
mass density (313.15 K, x1 = 0.039): 1075.97 ± 1 kg/m3 | mass density (313.15 K, x1 = 0.0455): 1085.27 ± 1 kg/m3 | mass density (313.15 K, x1 = 0.0497): 1091.07 ± 1 kg/m3 | mass density (313.15 K, x1 = 0.0683): 1111.85 ± 1 kg/m3 | mass density (313.15 K, x1 = 0.0783): 1121.25 ± 1 kg/m3 | mass density (313.15 K, x1 = 0.0894): 1129.5 ± 1 kg/m3 | mass density (313.15 K, x1 = 0.0975): 1134.91 ± 1 kg/m3 | mass density (313.15 K, x1 = 0.1235): 1150.57 ± 1 kg/m3 | mass density (313.15 K, x1 = 0.1451): 1159.24 ± 1 kg/m3 | mass density (313.15 K, x1 = 0.1925): 1172.52 ± 1 kg/m3 | mass density (313.15 K, x1 = 0.239): 1181.78 ± 1 kg/m3 | mass density (313.15 K, x1 = 0.2888): 1188.1 ± 1 kg/m3 | mass density (313.15 K, x1 = 0.3294): 1192.09 ± 1 kg/m3 | mass density (313.15 K, x1 = 0.3767): 1195.42 ± 1 kg/m3 | mass density (313.15 K, x1 = 0.4265): 1199.74 ± 1.1 kg/m3 | mass density (313.15 K, x1 = 0.4713): 1200.57 ± 1.1 kg/m3 | mass density (313.15 K, x1 = 0.5112): 1201.78 ± 1.1 kg/m3 | mass density (313.15 K, x1 = 0.5427): 1203.93 ± 1.1 kg/m3 | mass density (318.15 K, x1 = 0.039): 1073.22 ± 1 kg/m3 | mass density (318.15 K, x1 = 0.0455): 1082.41 ± 1 kg/m3 | mass density (318.15 K, x1 = 0.0497): 1088.19 ± 1 kg/m3 | mass density (318.15 K, x1 = 0.0683): 1108.8 ± 1 kg/m3 | mass density (318.15 K, x1 = 0.0783): 1118.14 ± 1 kg/m3 | mass density (318.15 K, x1 = 0.0894): 1126.34 ± 1 kg/m3 | mass density (318.15 K, x1 = 0.0975): 1131.71 ± 1 kg/m3 | mass density (318.15 K, x1 = 0.1235): 1147.32 ± 1 kg/m3 | mass density (318.15 K, x1 = 0.1451): 1155.99 ± 1 kg/m3 | mass density (318.15 K, x1 = 0.1925): 1169.27 ± 1 kg/m3 | mass density (318.15 K, x1 = 0.239): 1178.48 ± 1 kg/m3 | mass density (318.15 K, x1 = 0.2888): 1184.82 ± 1 kg/m3 | mass density (318.15 K, x1 = 0.3294): 1188.84 ± 1 kg/m3 | mass density (318.15 K, x1 = 0.3767): 1192.17 ± 1 kg/m3 | mass density (318.15 K, x1 = 0.4265): 1196.17 ± 1.1 kg/m3 | mass density (318.15 K, x1 = 0.4713): 1197.03 ± 1.1 kg/m3 | mass density (318.15 K, x1 = 0.5112): 1198.21 ± 1.1 kg/m3 | mass density (318.15 K, x1 = 0.5427): 1200.61 ± 1.1 kg/m3 | mass density (323.15 K, x1 = 0.039): 1070.37 ± 1 kg/m3 | mass density (323.15 K, x1 = 0.0455): 1079.46 ± 1 kg/m3 | mass density (323.15 K, x1 = 0.0497): 1085.24 ± 1 kg/m3 | mass density (323.15 K, x1 = 0.0683): 1105.7 ± 1 kg/m3 | mass density (323.15 K, x1 = 0.0783): 1114.98 ± 1 kg/m3 | mass density (323.15 K, x1 = 0.0894): 1123.14 ± 1 kg/m3 | mass density (323.15 K, x1 = 0.0975): 1128.49 ± 1 kg/m3 | mass density (323.15 K, x1 = 0.1235): 1144.03 ± 1 kg/m3 | mass density (323.15 K, x1 = 0.1451): 1152.7 ± 1 kg/m3 | mass density (323.15 K, x1 = 0.1925): 1166 ± 1 kg/m3 | mass density (323.15 K, x1 = 0.239): 1175.27 ± 1 kg/m3 | mass density (323.15 K, x1 = 0.2888): 1181.51 ± 1 kg/m3 | mass density (323.15 K, x1 = 0.3294): 1185.58 ± 1 kg/m3 | mass density (323.15 K, x1 = 0.3767): 1188.94 ± 1 kg/m3 | mass density (323.15 K, x1 = 0.4265): 1192.88 ± 1.1 kg/m3 | mass density (323.15 K, x1 = 0.4713): 1193.63 ± 1.1 kg/m3 | mass density (323.15 K, x1 = 0.5112): 1194.79 ± 1.1 kg/m3 | mass density (323.15 K, x1 = 0.5427): 1197.22 ± 1.1 kg/m3 | mass density (328.15 K, x1 = 0.039): 1067.43 ± 1 kg/m3 | mass density (328.15 K, x1 = 0.0455): 1076.44 ± 1 kg/m3 | mass density (328.15 K, x1 = 0.0497): 1082.22 ± 1 kg/m3 | mass density (328.15 K, x1 = 0.0683): 1102.55 ± 1 kg/m3 | mass density (328.15 K, x1 = 0.0783): 1111.78 ± 1 kg/m3 | mass density (328.15 K, x1 = 0.0894): 1119.9 ± 1 kg/m3 | mass density (328.15 K, x1 = 0.0975): 1125.24 ± 1 kg/m3 | mass density (328.15 K, x1 = 0.1235): 1140.73 ± 1 kg/m3 | mass density (328.15 K, x1 = 0.1451): 1149.4 ± 1 kg/m3 | mass density (328.15 K, x1 = 0.1925): 1162.68 ± 1 kg/m3 | mass density (328.15 K, x1 = 0.239): 1172 ± 1 kg/m3 | mass density (328.15 K, x1 = 0.2888): 1178.21 ± 1 kg/m3 | mass density (328.15 K, x1 = 0.3294): 1182.29 ± 1 kg/m3 | mass density (328.15 K, x1 = 0.3767): 1185.67 ± 1 kg/m3 | mass density (328.15 K, x1 = 0.4265): 1189.64 ± 1.1 kg/m3 | mass density (328.15 K, x1 = 0.4713): 1190.41 ± 1.1 kg/m3 | mass density (328.15 K, x1 = 0.5112): 1191.55 ± 1.1 kg/m3 | mass density (328.15 K, x1 = 0.5427): 1193.66 ± 1.1 kg/m3 | mass density (333.15 K, x1 = 0.039): 1064.43 ± 1 kg/m3 | mass density (333.15 K, x1 = 0.0455): 1073.32 ± 1 kg/m3 | mass density (333.15 K, x1 = 0.0497): 1079.13 ± 1 kg/m3 | mass density (333.15 K, x1 = 0.0683): 1099.36 ± 1 kg/m3 | mass density (333.15 K, x1 = 0.0783): 1108.54 ± 1 kg/m3 | mass density (333.15 K, x1 = 0.0894): 1116.63 ± 1 kg/m3 | mass density (333.15 K, x1 = 0.0975): 1121.94 ± 1 kg/m3 | mass density (333.15 K, x1 = 0.1235): 1137.4 ± 1 kg/m3 | mass density (333.15 K, x1 = 0.1451): 1146.06 ± 1 kg/m3 | mass density (333.15 K, x1 = 0.1925): 1159.35 ± 1 kg/m3 | mass density (333.15 K, x1 = 0.239): 1168.59 ± 1 kg/m3 | mass density (333.15 K, x1 = 0.2888): 1174.99 ± 1 kg/m3 | mass density (333.15 K, x1 = 0.3294): 1178.98 ± 1 kg/m3 | mass density (333.15 K, x1 = 0.3767): 1182.34 ± 1 kg/m3 | mass density (333.15 K, x1 = 0.4265): 1186.35 ± 1.1 kg/m3 | mass density (333.15 K, x1 = 0.4713): 1187.18 ± 1.1 kg/m3 | mass density (333.15 K, x1 = 0.5112): 1188.22 ± 1.1 kg/m3 | mass density (333.15 K, x1 = 0.5427): 1190.35 ± 1.1 kg/m3 | mass density (338.15 K, x1 = 0.039): 1061.36 ± 1 kg/m3 | mass density (338.15 K, x1 = 0.0455): 1070.11 ± 1 kg/m3 | mass density (338.15 K, x1 = 0.0497): 1075.98 ± 1 kg/m3 | mass density (338.15 K, x1 = 0.0683): 1096.1 ± 1 kg/m3 | mass density (338.15 K, x1 = 0.0783): 1105.26 ± 1 kg/m3 | mass density (338.15 K, x1 = 0.0894): 1113.31 ± 1 kg/m3 | mass density (338.15 K, x1 = 0.0975): 1118.6 ± 1 kg/m3 | mass density (338.15 K, x1 = 0.1235): 1134.05 ± 1 kg/m3 | mass density (338.15 K, x1 = 0.1451): 1142.71 ± 1 kg/m3 | mass density (338.15 K, x1 = 0.1925): 1155.98 ± 1 kg/m3 | mass density (338.15 K, x1 = 0.239): 1165.3 ± 1 kg/m3 | mass density (338.15 K, x1 = 0.2888): 1171.72 ± 1 kg/m3 | mass density (338.15 K, x1 = 0.3294): 1175.77 ± 1 kg/m3 | mass density (338.15 K, x1 = 0.3767): 1179.04 ± 1 kg/m3 | mass density (338.15 K, x1 = 0.4265): 1183.09 ± 1.1 kg/m3 | mass density (338.15 K, x1 = 0.4713): 1183.94 ± 1.1 kg/m3 | mass density (338.15 K, x1 = 0.5112): 1184.93 ± 1.1 kg/m3 | mass density (338.15 K, x1 = 0.5427): 1187.07 ± 1.1 kg/m3

Reference: the NIST ThermoML archive (doi:10.1021/je800783a)
